From US12180207B2 (ARRAY BIOPHARMA INC., priority 2018, dated 2024) come the findings set out here.

By IC50 is commonly meant the concentration that inhibits the measured activity by half.

Test [1] has as its target FGFR3 (SEQ ID NO: 5, amino acids 449-759) (Homo sapiens (Human), UniProt P22607). Briefly: LC/MS FGFR3 kobs assay (covalent protein modification). In kind it is binding. Conditions: 500 nM FGFR3, 3 μM compound. A digest of the protocol:
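Each time-point sample was quenched in 0.4% formic acid and analyzed by Q-TOF LC/MS. Deconvoluted signals gave percent modified and unmodified protein, normalized to the DMSO control, and the decay of unmodified protein yielded kobs.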

Test [2] has as its target recombinant human FGFR3 (amino acids R397-T806) (Homo sapiens (Human), UniProt P22607). As to the kind of experiment: FGFR3 enzyme activity assay (LanthaScreen TR-FRET). The format is biochemical. Conditions: 25 μM ATP, 10 min incubation at 22° C., average of multiple determinations if made, read-out: FGFR3 Enz FRET IC50. A digest of the protocol: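 GST-HIS6-tagged human FGFR3 (R397-T806) was reacted with 100 nM Alexa Fluor 647-Poly-GT substrate and 25 μM ATP plus compound in HEPES/MgCl2/Triton buffer, pH 7.5, 2% DMSO, for 10 min at 22 °C.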

Test [3] concerns the target phosphorylated FGFR3 (SEQ ID NO: 5, amino acids 449 to 759) (Homo sapiens (Human), UniProt P22607). As to the kind of experiment: FGFR enzyme binding assay (HTRF tracer displacement), FGFR3. Particulars: 5 nM phosphorylated FGFR3, average of multiple determinations if made. The procedure, abridged:
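Kinase and tracer were incubated with compound for 60 minutes at 22° C. Tracer displacement was then measured by HTRF, and results were expressed as POC with 1 μM control inhibitor defining full displacement.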
In general terms: Time-resolved FRET reads energy transfer from a long-lived donor to a nearby acceptor.

For test [4], the target named is recombinant human FGFR1 catalytic domain (amino acids 308-731) (Homo sapiens (Human), UniProt P11362). As to the kind of experiment: FGFR1 enzyme activity assay (LanthaScreen TR-FRET). In kind it is biochemical. Conditions: 20 min incubation at 22° C., average of multiple determinations if made, read-out: FGFR1 Enz FRET IC50. A digest of the protocol:
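His-tagged FGFR1 kinase domain with 100 nM Alexa Fluor 647-poly-GT peptide and ATP in pH 7.5 HEPES/MgCl2 buffer with 2% DMSO, 20 min at 22 °C. Quenched with EDTA plus 2 nM Eu-PY20 antibody and read after 60 min. IC50 comes from a 4-parameter fit of percent of control.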

recombinant human FGFR1 catalytic domain (amino acids 308-731), sequence (P11362 other isoform, or with tags, fused parts or gaps): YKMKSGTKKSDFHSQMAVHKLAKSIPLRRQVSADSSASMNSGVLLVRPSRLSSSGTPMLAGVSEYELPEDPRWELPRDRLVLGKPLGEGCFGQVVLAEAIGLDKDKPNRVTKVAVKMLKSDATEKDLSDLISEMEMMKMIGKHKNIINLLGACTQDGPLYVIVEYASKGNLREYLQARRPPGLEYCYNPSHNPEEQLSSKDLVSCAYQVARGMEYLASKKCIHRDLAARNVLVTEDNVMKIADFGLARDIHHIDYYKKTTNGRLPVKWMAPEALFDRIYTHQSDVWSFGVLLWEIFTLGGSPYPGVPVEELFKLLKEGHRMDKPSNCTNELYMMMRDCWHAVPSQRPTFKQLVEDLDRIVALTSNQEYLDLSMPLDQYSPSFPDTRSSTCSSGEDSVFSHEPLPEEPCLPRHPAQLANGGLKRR
FGFR3 (SEQ ID NO: 5, amino acids 449-759), sequence (P22607 449-759): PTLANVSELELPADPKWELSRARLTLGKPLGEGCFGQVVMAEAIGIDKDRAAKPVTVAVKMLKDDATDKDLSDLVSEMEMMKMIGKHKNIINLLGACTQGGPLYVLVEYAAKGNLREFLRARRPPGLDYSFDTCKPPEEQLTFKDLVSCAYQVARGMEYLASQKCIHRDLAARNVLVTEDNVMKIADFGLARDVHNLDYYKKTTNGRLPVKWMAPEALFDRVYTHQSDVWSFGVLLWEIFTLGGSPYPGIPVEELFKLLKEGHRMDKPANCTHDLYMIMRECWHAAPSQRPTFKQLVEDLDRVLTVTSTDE
phosphorylated FGFR3 (SEQ ID NO: 5, amino acids 449 to 759), sequence (P22607 449-759): as above
recombinant human FGFR3 (amino acids R397-T806), sequence (P22607 397-806): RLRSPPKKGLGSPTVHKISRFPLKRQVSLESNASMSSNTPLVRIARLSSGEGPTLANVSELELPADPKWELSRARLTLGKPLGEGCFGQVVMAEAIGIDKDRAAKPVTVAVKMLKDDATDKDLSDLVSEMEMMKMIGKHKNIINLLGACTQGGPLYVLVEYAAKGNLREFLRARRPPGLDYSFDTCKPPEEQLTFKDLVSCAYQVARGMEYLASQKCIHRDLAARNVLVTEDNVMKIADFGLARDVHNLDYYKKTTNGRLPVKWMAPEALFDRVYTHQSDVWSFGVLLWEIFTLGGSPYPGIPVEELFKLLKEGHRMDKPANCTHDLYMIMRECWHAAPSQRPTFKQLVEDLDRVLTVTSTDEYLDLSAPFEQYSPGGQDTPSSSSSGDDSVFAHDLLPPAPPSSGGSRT

For `C=CC(=O)N1CC(C(=O)N2CCC(n3cc(-c4cc(OC5CCC5)c5c(C#N)cnn5c4)cn3)CC2)C1` [Example 125, 6-(1-(1-(1-acryloylazetidine-3-carbonyl)piperidin-4-yl)-1H-pyrazol-4-yl)-4-cyclobutoxypyrazolo[1,5-a]pyridine-3-carbonitrile], the “FGFR3 Enz kobs” value in test [1] was determined as 0.01842 min⁻¹. In addition, the figures for the IC50 in test [2], in test [3] and in test [4] were 3 nM, 2 nM and 4 nM, respectively.

Consider `C=CC(=O)N1CC(C(=O)N2C[C@H]3C[C@@H]2CN3c2ccc(-c3cc(OC)c4c(C#N)cnn4c3)cn2)C1` [Example 107, 6-(6-((1R,4R)-5-(1-acryloylazetidine-3-carbonyl)-2,5-diazabicyclo[2.2.1]heptan-2-yl)pyridin-3-yl)-4-methoxypyrazolo[1,5-a]pyridine-3-carbonitrile], for which, in test [1], the “FGFR3 Enz kobs” value came out at 0.01688 min⁻¹. In addition, the IC50 in test [2] was 27 nM; in test [3], 16 nM; in test [4], 68 nM.

For the compound `C=CC(=O)N1CC(F)(C(=O)N2CCN(c3ccc(-c4cc(OC)c5c(C#N)cnn5c4)cn3)CC2)C1` [Example 112, 6-(6-(4-(1-acryloyl-3-fluoroazetidine-3-carbonyl)piperazin-1-yl)pyridin-3-yl)-4-methoxypyrazolo[1,5-a]pyridine-3-carbonitrile], the “FGFR3 Enz kobs” value in test [1] amounted to 0.1108 min⁻¹. In addition, the IC50 was found to be 20 nM in test [2], 4 nM in test [3] and 21 nM in test [4].

For `C=CC(=O)N1CC(O)(C(=O)N2CCC(n3ncc(-c4cc(OC)c5c(Cl)cnn5c4)c3C)CC2)C1` [Example 172, 1-(3-(4-(4-(3-chloro-4-methoxypyrazolo [1,5-a]pyridin-6-yl)-5-methyl-1H-pyrazol-1-yl)piperidine-1-carbonyl)-3-hydroxyazetidin-1-yl)prop-2-en-1-one], the “FGFR3 Enz kobs” value in test [1] stood at 0.02599 min⁻¹. The figures for the half-inhibitory concentration (IC50) in test [2], in test [3] and in test [4] were 101 nM, 25 nM and 856 nM, respectively.

In the case of `C=CC(=O)N1CC(C(=O)N2CC3(C2)CN(c2ccc(-c4cc(OC)c5c(C#N)cnn5c4)cn2)C3)C1` [Example 104, 6-(6-(6-(1-acryloylazetidine-3-carbonyl)-2,6-diazaspiro[3.3]heptan-2-yl)pyridin-3-yl)-4-methoxypyrazolo[1,5-a]pyridine-3-carbonitrile], in test [1], the “FGFR3 Enz kobs” value turned out to be 0.03006 min⁻¹. Further, the results for the IC50 in test [2], in test [3] and in test [4] were 20 nM, 12 nM and 63 nM, respectively.

For `COc1cc(-c2cnn(C3CCN(C(=O)C4CN(C(=O)/C=C/CN(C)C)C4)CC3)c2)cn2ncc(Cl)c12` [Example 174], in test [1], the “FGFR3 Enz kobs” value worked out at 0.02588 min⁻¹. Also, the IC50 in test [2] was determined as 4 nM; in test [3], 12 nM; in test [4], 16 nM.

As for `COc1cc(-c2cnn(C3CCN(CC4CN(C(=O)/C=C/CN(C)C)C4)CC3)c2)cn2ncc(C#N)c12` [Example 146, (E)-6-(1-(1-((1-(4-(dimethylamino)but-2-enoyl)azetidin-3-yl)methyl)piperidin-4-yl)-1H-pyrazol-4-yl)-4-methoxypyrazolo [1,5-a]pyridine-3-carbonitrile], the “FGFR3 Enz kobs” value in test [1] was found to be 0.01542 min⁻¹. Also, the IC50 was determined as 2 nM in test [2], 4 nM in test [3] and 12 nM in test [4].

On to `C=CC(=O)N1CC(C(=O)N2CCC(n3cc(-c4cc(OC)c5c(C#N)cnn5c4)c(CC)n3)CC2)C1` [Example 97, 6-(1-(1-(1-acryloylazetidine-3-carbonyl)piperidin-4-yl)-3-ethyl-1H-pyrazol-4-yl)-4-methoxypyrazolo[1,5-a]pyridine-3-carbonitrile], for which the “FGFR3 Enz kobs” value in test [1] is 0.01865 min⁻¹. Further, the figures for the IC50 in test [2], in test [3] and in test [4] were 72 nM, 53 nM and 117 nM, respectively.

On to `C=CC(=O)N1CC(C(=O)N2CCC(c3ccc(-c4cc(OC)c5c(C#N)cnn5c4)cc3)CC2)C1` [Example 101, 6-(4-(1-(1-acryloylazetidine-3-carbonyl)piperidin-4-yl)phenyl)-4-methoxypyrazolo[1,5-a]pyridine-3-carbonitrile], for which the “FGFR3 Enz kobs” value in test [1] was found to be 0.01185 min⁻¹. The IC50 in test [2] is 4 nM; in test [3], 3 nM; in test [4], 13 nM.

As to `C=CC(=O)N(C)c1ccc(C(=O)N2CCC(n3cc(-c4cc(OC)c5c(C#N)cnn5c4)cn3)CC2)cc1` [Example 178, N-(4-(4-(4-(3-cyano-4-methoxypyrazolo[1,5-a]pyridin-6-yl)-1H-pyrazol-1-yl)piperidine-1-carbonyl)phenyl)-N-methylacrylamide], the “FGFR3 Enz kobs” value in test [1] worked out at 0.01469 min⁻¹. Further, the half-inhibitory concentration (IC50) in test [2] came out at 12 nM; in test [3], 8 nM; in test [4], 14 nM.

Take `COc1cc(-c2cnn(C3CCN(C(=O)C4CN(C(=O)/C=C/CN(C)C)C4)CC3)c2)cn2ncc(C#N)c12` [Example 143, (E)-6-(1-(1-(1-(4-(dimethylamino)but-2-enoyl)azetidine-3-carbonyl)piperidin-4-yl)-1H-pyrazol-4-yl)-4-methoxypyrazolo [1,5-a]pyridine-3-carbonitrile]: the “FGFR3 Enz kobs” value in test [1] worked out at 0.02052 min⁻¹. Also, the IC50 in test [2] was 2 nM; in test [3], 2 nM; in test [4] it was 10 nM.

As for `COc1cc(-c2cnn(C3CCN(C(=O)C4CN(C(=O)C5=CCC5)C4)CC3)c2)cn2ncc(C#N)c12` [Example 137, 6-(1-(1-(1-(cyclobut-1-ene-1-carbonyl)azetidine-3-carbonyl)piperidin-4-yl)-1H-pyrazol-4-yl)-4-methoxypyrazolo[1,5-a]pyridine-3-carbonitrile], the “FGFR3 Enz kobs” value in test [1] was 0.00097 min⁻¹. The 50% inhibitory concentration (IC50) in test [2] turned out to be 5 nM; in test [3], 8 nM; in test [4], 12 nM.

On to `C=CC(=O)N1CC(C(=O)N2CCN(c3cnc(-c4cc(OC)c5c(C#N)cnn5c4)cn3)CC2)C1` [Example 116, 6-(5-(4-(1-acryloylazetidine-3-carbonyl)piperazin-1-yl)pyrazin-2-yl)-4-methoxypyrazolo[1,5-a]pyridine-3-carbonitrile], for which, in test [1], the “FGFR3 Enz kobs” value worked out at 0.02585 min⁻¹. Moreover, the IC50 in test [2] was 27 nM; in test [3], 19 nM; in test [4], 54 nM.

Take `COc1cc(-c2cnn(C3CCN(C(=O)C4(F)CN(C(=O)/C=C/C(F)(F)F)C4)CC3)c2C)cn2ncc(C#N)c12` [Example 155, (E)-6-(1-(1-(3-fluoro-1-(4,4,4-trifluorobut-2-enoyl)azetidine-3-carbonyl)piperidin-4-yl)-5-methyl-1H-pyrazol-4-yl)-4-methoxypyrazolo [1,5-a]pyridine-3-carbonitrile]: the IC50 in test [2] stood at 11 nM; in test [3] it was 10 nM; in test [4] it was 255 nM.

As to `C=CC(=O)N1CC(C(=O)N2CCC(n3cc(-c4cc(-c5ccc(NC(=O)C6CC6)cc5F)c5c(C#N)cnn5c4)cn3)CC2)C1` [Example 130, N-(4-(6-(1-(1-(1-acryloylazetidine-3-carbonyl)piperidin-4-yl)-1H-pyrazol-4-yl)-3-cyanopyrazolo[1,5-a]pyridin-4-yl)-3-fluorophenyl)cyclopropane-carboxamide], the “FGFR3 Enz kobs” value in test [1] was determined as 0.01127 min⁻¹. Also, the IC50 is 2 nM in test [2], 3 nM in test [3] and 3 nM in test [4].

In the case of `COc1cc(-c2cnn(C3CCN(C(=O)C4CN(C(=O)/C=C/CN5CC[C@H](F)C5)C4)CC3)c2)cn2ncc(C#N)c12` [Example 182, (S,E)-6-(1-(1-(1-(4-(3-fluoropyrrolidin-1-yl)but-2-enoyl)azetidine-3-carbonyl)piperidin-4-yl)-1H-pyrazol-4-yl)-4-methoxypyrazolo[1,5-a]pyridine-3-carbonitrile], the “FGFR3 Enz kobs” value in test [1] worked out at 0.01781 min⁻¹. The IC50 is 3 nM in test [2], 2 nM in test [3] and 12 nM in test [4].

Turning to `C=CC(=O)N1CC2(CCN(C(=O)N3CCC(n4cc(-c5cc(OC)c6c(C#N)cnn6c5)cn4)CC3)CC2)C1` [Example 6, 6-(1-(1-(2-acryloyl-2,7-diazaspiro[3.5]nonane-7-carbonyl)piperidin-4-yl)-1H-pyrazol-4-yl)-4-methoxypyrazolo[1,5-a]pyridine-3-carbonitrile], the “FGFR3 Enz kobs” value in test [1] was 0.00902 min⁻¹. Moreover, the IC50 in test [2] turned out to be 4 nM; in test [3] it was 18 nM; in test [4], 10 nM.

Turning to `C=CC(=O)N1CC(C(=O)N2CCC3(C2)CN(c2ccc(-c4cc(OC)c5c(C#N)cnn5c4)cn2)C3)C1` [Example 103, 6-(6-(6-(1-acryloylazetidine-3-carbonyl)-2,6-diazaspiro[3.4]octan-2-yl)pyridin-3-yl)-4-methoxypyrazolo[1,5-a]pyridine-3-carbonitrile], the “FGFR3 Enz kobs” value in test [1] stood at 0.02186 min⁻¹. The IC50 in test [2] is 20 nM; in test [3], 10 nM; in test [4], 49 nM.
